The values that follow come from US20040120926A1, “Reactive oxygen metabolite inhibitors for use in compositions and methods of treatment” (priority 1999, published 2004).

One assay concerns T-cells and NK-cells. Description: MO-induced apoptosis in T-cells and NK-cells (flow cytometry, reduced forward and increased right angle scatter). It counts as cell-based, human. Conditions: lymphocytes with MO, DPI 100 nM, Fas:Fc-IgG 20 μg/ml. On the technique in general: A flow cytometer gives signals particle by particle.
In the next assay the test system is mouse sarcoma (MCG). Description: In vivo tumor growth of subcutaneously inoculated mouse sarcoma (MCG). To be noted: for Mean Tumor Weight: control .941. Further details: species or system C57/b16 mice. The method, then: The following in vivo study was conducted to determine DPI's effectiveness in inhibiting tumor growth rate. C57/b16 mice were subcutaneously inoculated with mouse sarcoma (MCG) on Day 1. The mice were then subcutaneously injected once daily for Days 1-9 with either NaCl or DPI. There were 5 different treatment groups, including the control group that received NaCl. The other four treatment groups were administered DPI subcutaneously at dosages of either 1 mg/kg, 10 mg/kg, 50 mg/kg, or 100 mg/kg. On Day 9, the mice were killed and tumor size and weight was measured. The resulting tumor weights are provided below in Table 2.

In assay [1] the test system is elutriated MO (monocytes/macrophages). The assay is described as follows: Chemiluminescence assay of spontaneous isoluminol-enhanced extracellular superoxide anion generation in elutriated MO. It counts as cell-based, human. The method, then:
Peripheral venous blood was obtained as freshly prepared leukopacks from healthy blood donors at the Blood Centre, Sahlgren's Hospital, Goteborg, Sweden, to study the activation characteristics of cytotoxic lymphocytes in the presence and absence of MO, and ROM inhibitors. The blood (65 ml) was mixed with 92.5 ml Iscove's medium, 35 ml 6% Dextran (Kabi Pharmacia, Stockholm, Sweden) and 7.5 ml acid citrate dextrose (ACD) (Baxter, Deerfield, Ill.). After incubation for 15 minutes at room temperature, the supernatant was carefully layered onto Ficoll-Hypaque (Lymphoprep, Myegaard, Norway). Mononuclear cells (MNC) were collected at the interface after centrifugation at 380 g for 15 minutes at room temperature, washed twice in PBS and resuspended in Iscove's medium supplemented with 10% human AB+serum. During all further separation of cells, the cell suspensions were kept in siliconized test tubes (Vacuette, Greiner, Stockholm). […]
To assess whether DPI and histamine inhibited the spontaneous release of ROM from MO, a chemiluminescence assay was performed that specifically quantified extracellular ROM (superoxide anion). The spontaneous isoluminol-enhanced extracellular generation of superoxide anion in elutriated MO was measured using the assay described in Hellstrand, K., et al., J Immunol, 153:4940-4947 (1994) and in Lundqvist & Dahlgren, Free Radic. […]

The test system of assay [2] is T-cells (CD3ε+) and NK-cells (CD56+). The assay is described as follows: IL-2-induced CD69 expression on T-cells and NK-cells incubated with or without MO (flow cytometry). Type of assay: cell-based, human. As to the method:
FIG. 1 is a graph showing the protection of CD3ε+ T-cells against oxidative inhibition by DPI. Lymphocytes and MO were recovered from peripheral blood as described herein. A mixture of MO and lymphocytes was treated with culture medium (control, open circles) or IL-2 (100 U/ml; filled circles) for 16 hrs. After incubation, lymphocytes were labeled with antibodies to CD3ε and CD69. […] Similar results were obtained when CD69 expression was examined in CD56+. NK-cells incubated with MO: 29.5% (control) or 79.0% (DPI 1000 nM) of NK-cells acquired the CD69 antigen in response to IL-2. […] The results are representative of three similar experiments.
Peripheral venous blood was obtained as freshly prepared leukopacks from healthy blood donors at the Blood Centre, Sahlgren's Hospital, Goteborg, Sweden, to study the activation characteristics of cytotoxic lymphocytes in the presence and absence of MO, and ROM inhibitors. The blood (65 ml) was mixed with 92.5 ml Iscove's medium, 35 ml 6% Dextran (Kabi Pharmacia, Stockholm, Sweden) and 7.5 ml acid citrate dextrose (ACD) (Baxter, Deerfield, Ill.). After incubation for 15 minutes at room temperature, the supernatant was carefully layered onto Ficoll-Hypaque (Lymphoprep, Myegaard, Norway). Mononuclear cells (MNC) were collected at the interface after centrifugation at 380 g for 15 minutes at room temperature, washed twice in PBS and resuspended in Iscove's medium supplemented with 10% human AB+serum. During all further separation of cells, the cell suspensions were kept in siliconized test tubes (Vacuette, Greiner, Stockholm).
The MNC were further separated into lymphocyte and monocyte (MO) populations using the counter-current centrifugal elutriation (CCE) technique originally described by Yasaka and co-workers (Yasaka, T. et al., J. Immunol., 127:1515) with modifications as described in Hansson, M., et al. (J. Immunol., 156: 42 (1996); hereby incorporated by reference). Briefly, the MNC were resuspended in elutration buffer containing 0.05% BSA and 0.015% EDTA in buffered NaCl and fed into a Beckman J2-21 ultracentrifuge with a JE-6B rotor at 2100 rpm. A fraction with >90% MO was obtained at a flow rate of 18 ml/min. A lymphocyte fraction enriched for NK-cells (CD3^−/56^+ phenotype) and T-cells (CD3^+/56^−) was recovered at flow rates of 14-15 ml/min. This fraction contained <3% MO and consisted of CD3,^−/56^+ NK-cells (45-50%), CD3,^+/56^− T-cells (35-40%), CD3,^−/56^− cells (5-10%), and CD3,^+/56^+ cells (1-5%), as judged by flow cytometry. In some experiments, dynabeads (Dynal A/S, Oslo, Norway) coated with anti-CD56 were used to obtain purified lymphocyte preparations of T-cells, as described in detail by Hansson, M., et al., incorporated above.
Flow cytometry was used in the experiments described below to identify the various sub-populations of T-cells. Flow cytometry permits an investigator to examine a population of cells using a number of labeled probes to differentiate sub-populations within the larger whole. In these experiments, the CD3 marker was used to identify the sub-population of T-cells and the CD4 and CD8 markers were used to further identify the sub-population of T-cells into T helper cells and CTLs. The effects of MO exposure in the presence and absence of histamine and T-cell activation compounds were determined using the CD69 T-cell activation marker. The expression of the different markers was estimated in a lymphocyte gate using flow cytometry (as described in Hellstrand, K., et al. Cell. Immunol. 138: 44-54 (1991), and hereby incorporated by reference).
The following protocol was used in experiments reporting the detection of surface antigens of cell populations. One million cells were incubated with appropriate fluorescein isothiocynate (FITC) and phycoerythrin (PE) conjugated monoclonal antibodies (Becton & Dickinson, Stockholm, Sweden; 1:1/10^6 cells), on ice for 30 minutes. […]

Assay [3] is described as follows: Scavenging of superoxide anion. To be noted: 200 U/ml.

Regarding `c1ccc([I+]c2ccccc2)cc1` [DPI, diphenyliodonium], the “apoptotic CD3+/CD69+(%)” value with T-cells and NK-cells (control 52) is 7%. Moreover, the “apoptotic CD56+/CD69+(%)” value in the assay with T-cells and NK-cells (control 71) came to 13%. For the same molecule, the “Mean Tumor Weight” value in the assay with mouse sarcoma (MCG) (1 mg/kg s.c. once daily Days 1-9, Day 9) is given as 1.107 gms; in the assay on mouse sarcoma (MCG) (10 mg/kg s.c. once daily Days 1-9, Day 9), “.643 gms”; with mouse sarcoma (MCG) (50 mg/kg s.c. once daily Days 1-9, Day 9), “.638 gms”; in the assay with mouse sarcoma (MCG) (100 mg/kg s.c. once daily Days 1-9, Day 9), “.473 gms”. Besides, in the assay on mouse sarcoma (MCG) (1, 10, 50, 100 mg/kg s.c. once daily Days 1-9), the “effect on tumor growth rate in vivo” value is on record as “dose dependent inhibiting effect”. For the same molecule, the “reduction of released extracellular superoxide anion” value in assay [1] (DPI 10 nM, MO from three blood donors) is listed as “more than four fold reduction”. Also, the “NK-cells that acquired the CD69 antigen in response to IL-2” value in assay [2] (CD56+ NK-cells incubated with MO, DPI 1000 nM, IL-2 100 U/ml, 16 hrs, control 29.5%) was found to be 79.0%. For the same molecule, the “MO-induced inhibition of T-cells and NK-cells (IL-2-induced CD69)” value in assay [2] (DPI, lymphocytes with MO, IL-2 100 U/ml, 16 hours) is “significantly reversed”. Also, in assay [2] (incubated in the absence of MO), the “IL-2-induced expression of CD69 in T-cells or NK-cells” value was “did not increase”. In assay [2] (lymphocytes with MO, DPI 100 nM, Fas:Fc-IgG 20 μg/ml, control 36), the “viable CD56+/69+ (gated events)” value came to 1248 gated events. For the same molecule, in assay [2] (lymphocytes with MO, DPI 100 nM, Fas:Fc-IgG 20 μg/ml, control 89), the “viable CD3+/CD69+ (gated events)” value came out at 701 gated events.
Turning to `NCCc1c[nH]cn1` [histamine, reference compound], the “inhibition of the concentration of extracellular superoxide anion” value in assay [1] (histamine at 50 μM) was “more than five-fold”.
Regarding Catalase [reference compound], the “MO-induced inhibition of IL-2-induced CD69 expression in T-cells and NK-cells” value in assay [2] (catalase at concentrations exceeding 50 U/ml) is recorded as “significantly reversed”.
As for “superoxide dismutase [reference compound]”, the “MO-induced inhibition of IL-2-induced CD69 expression in T-cells and NK-cells” value in assay [2] (superoxide dismutase 200 U/ml) is listed as “ineffective”. The molecule also showed a superoxide anion scavenged in assay [3] of more than 90%.
